Consider 45 molecules from patent US20250327793A1, “METHODS OF IDENTIFYING COMPOUNDS THAT MODULATE LAUNDRY MALODOR, MOLDY MALODOR, OR SWEAT MALODOR” (Firmenich SA, priority 2017, published 2025).

The term IC50 denotes the concentration needed to halve the response being measured. Read a high IC50 as weaker potency in that assay.

Where a name gives a salt, the structure may show the parent alone.

This assay concerns the target T1, OR51E1 olfactory receptor (Homo sapiens, UniProt Q8TCB6, K299R).
T1 construct: expressed in transfected cells
T1 sequence (Q8TCB6 2-318 K299R limits assumed): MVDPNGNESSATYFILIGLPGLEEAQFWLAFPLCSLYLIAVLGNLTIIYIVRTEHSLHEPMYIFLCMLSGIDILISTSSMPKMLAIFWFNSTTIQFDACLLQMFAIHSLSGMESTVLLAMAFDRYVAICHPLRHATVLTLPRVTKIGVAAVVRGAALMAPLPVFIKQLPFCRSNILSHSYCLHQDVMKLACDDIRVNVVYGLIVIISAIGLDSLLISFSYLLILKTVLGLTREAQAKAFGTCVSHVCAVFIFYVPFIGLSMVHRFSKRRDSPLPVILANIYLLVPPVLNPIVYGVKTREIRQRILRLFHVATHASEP
The assay can be described thus: Butyric acid olfactory receptor antagonist cell-based inhibitory dose-response assay.

The mark [1] stands for this setting: Table 4, butyric acid at single activating concentration (EC94).
Where [2] appears, read: Table 5, agonist concentration not given.
Setting [3] is: Table 5, butyric acid olfactory receptor antagonists, agonist concentration not given.

With `CC(=O)O[C@H]([C@H]1CCCC[C@@H]1C)C(C)(C)C` (racemic) [[(1~{R})-2,2-dimethyl-1-[(1~{S},2~{S})-2-methylcyclohexyl]propyl] acetate], under setting [1], the concentration for half-maximal inhibition (IC50) worked out at 170 µM.
`C[C@H]1CCCC2(CCCC[C@@H]2C)[C@@H]1O` (single isomer, unassigned) [(4~{S},5~{R},6~{S},11~{S})-4,11-dimethylspiro[5.5]undecan-5-ol]: the “Inhibition (%)” value (Table 4, butyric acid at EC94) is reported as 54%. The molecule further displayed a half-inhibitory concentration (IC50) under setting [1] of 76.9 µM.
On to `C=C1C(C)(C)CCCC12CC1(C)OC1(C)C2` (centres unmarked) [1,1′,1′,5-tetramethyl-2′-methylidenespiro[6-oxabicyclo[3.1.0]hexane-3,3′-cyclohexane]], for which, where the note is “Table 4, butyric acid at EC94”, the “Inhibition (%)” value was 37%. Moreover, the IC50 under setting [1] is 75.7 µM.
In the case of `CC(=O)C1(C)CC(C)C23CCC(CC12)C3` (centres unmarked) [1-(2,4-dimethyl-4-tricyclo[5.2.1.0^{1,5}]decanyl)ethanone], under setting [2], the “Inhibition (%)” value came out at 26%. This molecule had an IC50 under setting [3] of 60.5 µM.
The corresponding values for `CC(=O)OC(C)C1(C)CC(C)C23CCC(CC12)C3` (centres unmarked) [1-(2,4-dimethyl-4-tricyclo[5.2.1.0^{1,5}]decanyl)ethyl acetate] are 34% and 54.8 µM.
`CC1C=CCC(C)C1C(O)C(C)(C)C` (centres unmarked) [1-(2,6-dimethylcyclohex-3-en-1-yl)-2,2-dimethylpropan-1-ol]: under “Table 4, butyric acid at EC94”, the “Inhibition (%)” value is given as 31%. For the same molecule, half-maximal inhibition under setting [1] (IC50) was put at 321 µM.
Turning to `CC(=O)OC(C)C1CC(C)C23CCC(CC12)C3` (centres unmarked) [1-(2-methyl-4-tricyclo[5.2.1.0^{1,5}]decanyl)ethyl acetate], under setting [2], the “Inhibition (%)” value was determined as 23%. The same molecule displayed a concentration for half-maximal inhibition (IC50) under setting [3] of 97 µM.
`CC(=O)[C@@]1(C)C(C)[C@H](C)[C@@]23CC[C@H](CC12)C3` (some centres unmarked) [1-[(1~{S},2~{S},4~{S},7~{R})-2,3,4-trimethyl-4-tricyclo[5.2.1.0^{1,5}]decanyl]ethanone]: the IC50 under setting [3] was 32.6 µM.
In the case of `C=CCC1(OC)C(C)CCCC1C` (centres unmarked) [1-methoxy-2,6-dimethyl-1-prop-2-enylcyclohexane], under “Table 4, butyric acid at EC94”, the “Inhibition (%)” value is 61%. Further, the IC50 under setting [1] was 100 µM.
Turning to `C=C(C)CC1(CC(=C)C)CCC(C)(C)C1O` (centres unmarked) [2,2-dimethyl-5,5-bis(2-methylprop-2-enyl)cyclopentan-1-ol], the “Inhibition (%)” value (Table 4, butyric acid at EC94) is reported as 119%. Also, it took 35.1 µM to reach half-maximal inhibition under setting [1] (IC50).
The corresponding values for `C=C(C)CC1(CC(=C)C)CCC(C)(C)C1=O` [2,2-dimethyl-5,5-bis(2-methylprop-2-enyl)cyclopentan-1-one] are 82% and 51.7 µM.
With `C=C(C)CC1(CC(=C)C)CCCC(C)(C)C1O` (centres unmarked) [2,2-dimethyl-6,6-bis(2-methylprop-2-enyl)cyclohexan-1-ol], the “Inhibition (%)” value (Table 4, butyric acid at EC94) came out at 110%. Under setting [1], the IC50 was found to be 125 µM.
The corresponding values for `C=C(C)CC1(CC(=C)C)CCCC(C)(C)C1=O` [2,2-dimethyl-6,6-bis(2-methylprop-2-enyl)cyclohexan-1-one] are 103% and 46.6 µM.
With `CC1C(C)C23CCC(CC2C1(C)C=O)C3` (centres unmarked) [2,3,4-trimethyltricyclo[5.2.1.0^{1,5}]decane-4-carbaldehyde], the “Inhibition (%)” value under setting [2] worked out at 28%. Besides, the IC50 under setting [3] came out at 270 µM.
`CC1=C(C)CC2(CCC(C)(C)C2=O)C1` [2,3,8,8-tetramethylspiro[4.4]non-2-en-9-one]: the “Inhibition (%)” value (Table 4, butyric acid at EC94) came to 10%. This molecule registered a concentration for half-maximal inhibition (IC50) under setting [1] of 198 µM.
For the molecule `CC1=C(C)CC2(CCCC(C)(C)C2O)C1` (centres unmarked) [2,3,9,9-tetramethylspiro[4.5]dec-2-en-10-ol], the “Inhibition (%)” value (Table 4, butyric acid at EC94) was 16%. Moreover, under setting [1], half-maximal inhibition (IC50) was put at 78.7 µM.
The corresponding values for `CC1CC2(CCCC(C)(C)C2O)CC1C` (centres unmarked) [2,3,9,9-tetramethylspiro[4.5]decan-10-ol] are 12% and 120 µM.
The corresponding values for `CC1=CC(C)C2(CCCC(C)(C)C2O)C1` (centres unmarked) [2,4,9,9-tetramethylspiro[4.5]dec-2-en-10-ol] are 22% and 81.6 µM.
In the same order, the values of `CC1=CC(C)C2(CCCC(C)(C)C2=O)C1` (centres unmarked) [2,4,9,9-tetramethylspiro[4.5]dec-2-en-10-one] are 63% and 110 µM.
For `C=CCC1(C(C)C=C)CCCC(C)(C)C1=O` (centres unmarked) [2-but-3-en-2-yl-6,6-dimethyl-2-prop-2-enylcyclohexan-1-one], where the note is “Table 4, butyric acid at EC94”, the “Inhibition (%)” value is 115%. Besides, the IC50 under setting [1] came to 76.4 µM.
The corresponding values for `CC1=CCC2(CCCCC2O)C(C(C)C)C1` (centres unmarked) [3-methyl-5-propan-2-ylspiro[5.5]undec-2-en-11-ol] are 144% and 366 µM.
In the same order, the values of `CC1C=CCC12CCCC(C)(C)C2=O` (centres unmarked) [4,9,9-trimethylspiro[4.5]dec-2-en-10-one] are 102% and 268 µM.
The corresponding values for `COC1C(C)(C)CCC12CCCC2` (centres unmarked) [4-methoxy-3,3-dimethylspiro[4.4]nonane] are 105% and 337 µM.
With `CC1(C)CCCC2(CC=CC2)C1O` (centres unmarked) [9,9-dimethylspiro[4.5]dec-2-en-10-ol], the “Inhibition (%)” value (Table 4, butyric acid at EC94) was determined as 91%. Also, under setting [1], the IC50 is 44.1 µM.
In the same order, the values of `CC1(C)CCCC2(CC=CC2)C1=O` [9,9-dimethylspiro[4.5]dec-2-en-10-one] are 23% and 135 µM.
In the case of `COC1C(C)(C)CCC12CC=CC2` (centres unmarked) [9-methoxy-8,8-dimethylspiro[4.4]non-2-ene], the “Inhibition (%)” value (Table 4, butyric acid at EC94) came to 100%. Under setting [1], this molecule returned a concentration for half-maximal inhibition (IC50) of 238 µM.
With `COC1C(C)(C)CCCC12CC=CC2` (centres unmarked) [10-methoxy-9,9-dimethylspiro[4.5]dec-2-ene], the “Inhibition (%)” value (Table 4, butyric acid at EC94) was 33%. Also, under setting [1], half-maximal inhibition (IC50) required 120 µM.
In the same order, the values of `CC1CCCCC12CCCCC2O` (centres unmarked) [11-methylspiro[5.5]undecan-5-ol] are 52% and 68.8 µM.
In the same order, the values of `CC(=O)OC1C(C)(C)CCCC12C(C)C=CCC2C` (centres unmarked) [(1,5,10,10-tetramethylspiro[5.5]undec-3-en-11-yl) acetate] are 72% and 72.3 µM.
The corresponding values for `CC(=O)OC1C(C)(C)CCCC12CC(C)(C)C(C)(C)C2` (centres unmarked) [(2,2,3,3,9,9-hexamethylspiro[4.5]decan-10-yl) acetate] are 39% and 425 µM.
With `CC(=O)OCC1(C)C(C)C(C)C23CCC(CC12)C3` (centres unmarked) [(2,3,4-trimethyl-4-tricyclo[5.2.1.0^{1,5}]decanyl)methyl acetate], under setting [2], the “Inhibition (%)” value is recorded as 27%. Under setting [3], this molecule showed an IC50 of 60.8 µM.
In the case of `CC(=O)OC1C(C)(C)CCCC12CC(C)=C(C)C2` (centres unmarked) [(2,3,9,9-tetramethylspiro[4.5]dec-2-en-10-yl) acetate], the “Inhibition (%)” value (Table 4, butyric acid at EC94) amounted to 116%. The half-inhibitory concentration (IC50) under setting [1] is above 600 µM.
In the same order, the values of `CC1=C(C)CC2(CCCC(C)(C)C2OC=O)C1` (centres unmarked) [(2,3,9,9-tetramethylspiro[4.5]dec-2-en-10-yl) formate] are 69% and 25.9 µM.
For the molecule `CC(=O)OC1C(C)(C)CCCC12CC(C)C(C)C2` (centres unmarked) [(2,3,9,9-tetramethylspiro[4.5]decan-10-yl) acetate], where the note is “Table 4, butyric acid at EC94”, the “Inhibition (%)” value is given as 62%. The half-maximal inhibitory concentration (IC50) under setting [1] was 51.4 µM.
In the same order, the values of `CC(=O)OC1C(C)(C)CCCC12CC(C)=CC2C` (centres unmarked) [(2,4,9,9-tetramethylspiro[4.5]dec-2-en-10-yl) acetate] are 131% and 34.8 µM.
In the same order, the values of `CC(=O)OC1C(C)(C)CCCC12CC=C(C)CC2C` (centres unmarked) [(3,5,10,10-tetramethylspiro[5.5]undec-2-en-11-yl) acetate] are 104% and 71.4 µM.
The corresponding values for `CC(=O)OC1C(C)(C)CCCC12CC=CC2C` (centres unmarked) [(4,9,9-trimethylspiro[4.5]dec-2-en-10-yl) acetate] are 106% and 48.5 µM.
For `CC1CC=CCC12CCCC(C)(C)C2OC=O` (centres unmarked) [(5,10,10-trimethylspiro[5.5]undec-2-en-11-yl) formate], the “Inhibition (%)” value (Table 4, butyric acid at EC94) was determined as 129%. Under setting [1], this molecule displayed an IC50 of 44.4 µM.
The corresponding values for `CC(=O)OC1C(C)(C)CCC12CC=CC2` (centres unmarked) [(8,8-dimethylspiro[4.4]non-2-en-9-yl) acetate] are 107% and 488 µM.
In the same order, the values of `CC(=O)OC1C(C)(C)CCCC12CC=CC2` (centres unmarked) [(9,9-dimethylspiro[4.5]dec-2-en-10-yl) acetate] are 32% and 90.3 µM.
In the same order, the values of `CC(=O)OC(C1C(C)C=C(C)CC1C)C(C)(C)C` (stereo not drawn) [[2,2-dimethyl-1-(2,4,6-trimethylcyclohex-3-en-l-yl)propyl] acetate] are 89% and 52.6 µM.
Consider `CC(=O)OC(C1C(C)CC(C)CC1C)C(C)(C)C` (centres unmarked) [[2,2-dimethyl-1-(2,4,6-trimethylcyclohexyl)propyl] acetate], for which the “Inhibition (%)” value (Table 4, butyric acid at EC94) was found to be 101%. The IC50 under setting [1] was 242 µM.
`CC(=NO)C1(C)C(C)C(C)[C@]23CC[C@H](CC12)C3` (some centres unmarked) [~{N}-[1-[(1~{R},7~{R})-2,3,4-trimethyl-4-tricyclo[5.2.1.0^{1,5}]decanyl]ethylidene]hydroxylamine]: the concentration for half-maximal inhibition (IC50) under setting [3] is 79.7 µM.
Regarding `CC(=NO)C1C(C)C(C)C23CCC(CC12)C3` (centres unmarked) [~{N}-[1-[(1~{S},7~{R})-2,3-dimethyl-4-tricyclo[5.2.1.0^{1,5}]decanyl]ethylidene]hydroxylamine], the “Inhibition (%)” value under setting [2] was found to be 19%. This molecule yielded a half-inhibitory concentration (IC50) under setting [3] of 76.6 µM.
Under setting [3], `CC1CC(C)(C=NO)C2C[C@H]3CC[C@]12C3` (some centres unmarked) [~{N}-[[(1~{S},7~{R})-2,4-dimethyl-4-tricyclo[5.2.1.0^{1,5}]decanyl]methylidene]hydroxylamine] came in with a half-maximal inhibitory concentration (IC50) of 88.5 µM.
